Results taken from ChEMBL document CHEMBL1201862, “PubChem BioAssay data set” (2004).
Each block holds one molecule with its values, some of them ahead of it. The source made the active and inactive calls.

Legend:
[1] = biological target: T1, Sentrin-specific protease 8 (Homo sapiens, UniProt Q96LD8); type: functional;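 note: luminescence read-out of SENP8 inhibition, dose-response confirmation following an ultra-high-throughput screen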
T1 sequence (Q96LD8 whole entry): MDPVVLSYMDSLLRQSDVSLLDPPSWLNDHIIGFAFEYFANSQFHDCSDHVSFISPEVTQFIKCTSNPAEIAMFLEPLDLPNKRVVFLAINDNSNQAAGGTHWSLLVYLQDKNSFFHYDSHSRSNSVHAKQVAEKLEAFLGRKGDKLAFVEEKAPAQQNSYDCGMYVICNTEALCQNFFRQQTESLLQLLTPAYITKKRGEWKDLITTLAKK

Caspase-3 = biological target: T2, Caspase-3 (Homo sapiens, UniProt P42574); type: functional;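 note: Dose-response selectivity test against caspase-3 for candidate inhibitors of sentrin-specific proteases (SENPs)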
T2 sequence (P42574 whole entry): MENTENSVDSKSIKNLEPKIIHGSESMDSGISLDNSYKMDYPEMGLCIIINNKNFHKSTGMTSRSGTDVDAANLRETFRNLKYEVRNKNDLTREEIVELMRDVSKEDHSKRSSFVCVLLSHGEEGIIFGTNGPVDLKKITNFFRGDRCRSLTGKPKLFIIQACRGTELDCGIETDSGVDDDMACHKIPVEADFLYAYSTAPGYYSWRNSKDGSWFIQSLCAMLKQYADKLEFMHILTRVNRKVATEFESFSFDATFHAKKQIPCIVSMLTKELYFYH

[2] = biological target: T3, Sentrin-specific protease 7 (Homo sapiens, UniProt Q9BQF6); type: functional;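 note: Luminescence-based dose-response confirmation of ultra-high-throughput screening hits, measuring inhibition of SENP7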
T3 sequence (Q9BQF6 whole entry): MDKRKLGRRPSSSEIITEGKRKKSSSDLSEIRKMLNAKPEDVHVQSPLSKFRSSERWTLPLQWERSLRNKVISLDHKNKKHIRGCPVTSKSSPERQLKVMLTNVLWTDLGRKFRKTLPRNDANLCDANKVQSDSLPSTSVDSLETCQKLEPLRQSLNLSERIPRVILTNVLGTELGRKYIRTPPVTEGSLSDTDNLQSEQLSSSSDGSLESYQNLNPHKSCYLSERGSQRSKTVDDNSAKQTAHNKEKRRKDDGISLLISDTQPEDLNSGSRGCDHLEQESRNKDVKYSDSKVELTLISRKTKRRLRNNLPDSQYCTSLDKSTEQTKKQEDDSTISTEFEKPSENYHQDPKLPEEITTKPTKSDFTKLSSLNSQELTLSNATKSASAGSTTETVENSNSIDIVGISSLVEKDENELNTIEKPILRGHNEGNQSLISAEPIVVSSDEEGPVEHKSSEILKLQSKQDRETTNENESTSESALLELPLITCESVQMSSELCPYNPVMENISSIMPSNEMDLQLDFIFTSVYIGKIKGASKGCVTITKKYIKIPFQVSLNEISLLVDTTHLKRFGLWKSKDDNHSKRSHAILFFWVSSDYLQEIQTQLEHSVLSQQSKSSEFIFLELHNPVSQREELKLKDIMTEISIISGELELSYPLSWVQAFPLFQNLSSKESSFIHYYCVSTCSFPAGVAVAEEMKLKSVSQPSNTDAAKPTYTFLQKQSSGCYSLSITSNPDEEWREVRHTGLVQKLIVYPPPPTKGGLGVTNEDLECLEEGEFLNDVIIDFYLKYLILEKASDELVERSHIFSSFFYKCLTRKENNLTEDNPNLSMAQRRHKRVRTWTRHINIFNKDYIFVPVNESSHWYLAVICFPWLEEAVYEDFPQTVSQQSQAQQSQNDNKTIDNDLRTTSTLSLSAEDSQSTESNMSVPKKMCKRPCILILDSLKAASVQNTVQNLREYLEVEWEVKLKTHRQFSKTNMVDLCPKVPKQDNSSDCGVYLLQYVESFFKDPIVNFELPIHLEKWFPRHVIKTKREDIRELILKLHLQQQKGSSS

[3] = biological target: T4, Sentrin-specific protease 6 (Homo sapiens, UniProt Q9GZR1); type: functional;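 note: Luminescence-based dose-response confirmatory assay of SENP6 inhibition, following up an ultra-high-throughput screen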
T4 sequence (Q9GZR1 whole entry): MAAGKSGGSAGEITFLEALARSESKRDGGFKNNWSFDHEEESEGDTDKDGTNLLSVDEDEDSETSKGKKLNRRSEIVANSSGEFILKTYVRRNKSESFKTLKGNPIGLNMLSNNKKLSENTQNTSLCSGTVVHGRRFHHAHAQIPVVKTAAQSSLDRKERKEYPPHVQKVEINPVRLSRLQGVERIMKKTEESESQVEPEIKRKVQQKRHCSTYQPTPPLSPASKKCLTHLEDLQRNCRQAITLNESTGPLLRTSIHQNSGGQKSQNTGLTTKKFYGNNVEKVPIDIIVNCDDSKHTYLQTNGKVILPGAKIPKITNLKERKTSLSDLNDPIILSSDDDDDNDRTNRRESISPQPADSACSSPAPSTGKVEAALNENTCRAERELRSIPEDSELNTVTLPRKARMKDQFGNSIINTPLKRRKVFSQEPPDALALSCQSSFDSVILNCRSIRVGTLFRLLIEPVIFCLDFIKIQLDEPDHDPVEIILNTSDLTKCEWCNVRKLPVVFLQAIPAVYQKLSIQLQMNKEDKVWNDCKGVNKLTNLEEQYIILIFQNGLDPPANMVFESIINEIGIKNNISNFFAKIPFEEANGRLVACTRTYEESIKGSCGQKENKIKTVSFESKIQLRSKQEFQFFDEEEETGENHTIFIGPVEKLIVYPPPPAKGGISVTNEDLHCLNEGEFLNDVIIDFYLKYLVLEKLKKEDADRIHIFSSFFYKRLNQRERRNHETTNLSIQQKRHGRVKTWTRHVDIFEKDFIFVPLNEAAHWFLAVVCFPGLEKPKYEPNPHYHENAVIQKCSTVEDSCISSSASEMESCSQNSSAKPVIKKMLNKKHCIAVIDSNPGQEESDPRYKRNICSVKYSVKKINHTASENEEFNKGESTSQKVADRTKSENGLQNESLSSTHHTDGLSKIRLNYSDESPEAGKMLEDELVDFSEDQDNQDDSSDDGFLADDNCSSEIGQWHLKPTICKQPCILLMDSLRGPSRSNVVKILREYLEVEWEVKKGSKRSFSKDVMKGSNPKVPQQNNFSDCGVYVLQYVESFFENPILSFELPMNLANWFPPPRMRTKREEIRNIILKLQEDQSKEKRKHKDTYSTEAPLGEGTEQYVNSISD

[4] = biological target: T5, Rac GTPase-activating protein 1 (Homo sapiens, UniProt Q9H0H5); experiment: blockers of MgcRacGAP-driven Rac1 GTP hydrolysis – biochemical, ADP Hunter fluorescence, primary and confirmatory, confirmation (AID 624330); type: functional
T5 sequence (Q9H0H5 whole entry): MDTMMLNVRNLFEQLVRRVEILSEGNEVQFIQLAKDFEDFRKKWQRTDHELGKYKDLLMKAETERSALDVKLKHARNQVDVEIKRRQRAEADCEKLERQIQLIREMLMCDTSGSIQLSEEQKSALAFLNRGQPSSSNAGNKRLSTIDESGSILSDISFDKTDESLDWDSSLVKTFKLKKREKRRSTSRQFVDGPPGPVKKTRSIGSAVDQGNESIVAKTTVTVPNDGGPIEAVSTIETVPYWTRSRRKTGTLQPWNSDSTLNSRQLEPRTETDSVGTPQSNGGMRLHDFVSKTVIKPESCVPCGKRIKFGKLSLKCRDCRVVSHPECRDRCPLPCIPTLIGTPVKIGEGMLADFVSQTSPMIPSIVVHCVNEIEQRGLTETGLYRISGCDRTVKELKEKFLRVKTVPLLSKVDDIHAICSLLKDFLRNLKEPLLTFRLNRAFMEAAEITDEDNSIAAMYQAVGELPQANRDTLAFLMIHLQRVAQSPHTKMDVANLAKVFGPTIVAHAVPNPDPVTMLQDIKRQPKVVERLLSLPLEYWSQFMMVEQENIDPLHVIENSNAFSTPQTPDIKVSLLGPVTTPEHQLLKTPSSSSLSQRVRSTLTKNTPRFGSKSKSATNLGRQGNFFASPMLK

HEK293 = experiment: EBV LMP1 TES2 canonical NF-kB signalling blockers – cell-based, HEK293, luciferase, cherry-pick, dose response (AID 588343); type: functional; details: Homo sapiens
Jurkat = experiment: blockers of NF-kB activation in T cells – Jurkat, luciferase reporter, luminescence, B- and T-cell, dose response (AID 489004); type: functional, cell-based; details: Homo sapiens;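 note: NF-kB luciferase reporter Jurkat cells stimulated with PMA plus ionomycin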
[5] = HEK-293T viability loss, compound-treated – cell-based, uHTS hits, cytotoxicity control for B/T-cell NF-kB inhibitor project, dose response (AID 489019); type: functional;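 note: IC50 reflects cytotoxicity as loss of cell viability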
Large T antigen = Large T antigen (Simian virus 40, UniProt P03070); type: functional, Betapolyomavirus macacae;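 note: Confirmatory-stage PubChem screen for compounds that inhibit SV40 T antigen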
[6] = DRD fibroblast viability loss – cell-based, non-viral oncogenic, luminescence, dose response (AID 1934); type: functional; details: Homo sapiens
BJ [7] = experiment: growth inhibition of engineered Ras-driven BJ cells – cell-based, alamar blue fluorescence, cherrypicked samples, dose response (AID 2631); type: functional; details: Homo sapiens;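 note: confirmatory dose-response assay in RAS-dependent BJ fibroblasts engineered with TERT, LT and ST, with cytotoxicity read by fluorescence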
BJ [8] = experiment: cells; type: functional, cell-based; details: Homo sapiens
BJ [9] = experiment: BJ-TERT-LT-ST fibroblast viability loss – cell-based, RAS-independent, luminescence, dose response (AID 1935); type: functional; details: Homo sapiens;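 note: BJ fibroblasts immortalized with TERT plus LT and ST oncogenes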
[10] = biological target: T6, Microphthalmia-associated transcription factor (Homo sapiens, UniProt O75030); experiment: reducers of TRPM1 reporter luminescence, concentration series – cell-based, SK-MEL-5, cherry-picked, set 3, MITF inhibitor project, dose response (AID 493073); type: functional;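 note: SK-MEL-5 melanoma cells with luciferase driven by the MITF target TRPM1 promoter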
T6 sequence (O75030 whole entry): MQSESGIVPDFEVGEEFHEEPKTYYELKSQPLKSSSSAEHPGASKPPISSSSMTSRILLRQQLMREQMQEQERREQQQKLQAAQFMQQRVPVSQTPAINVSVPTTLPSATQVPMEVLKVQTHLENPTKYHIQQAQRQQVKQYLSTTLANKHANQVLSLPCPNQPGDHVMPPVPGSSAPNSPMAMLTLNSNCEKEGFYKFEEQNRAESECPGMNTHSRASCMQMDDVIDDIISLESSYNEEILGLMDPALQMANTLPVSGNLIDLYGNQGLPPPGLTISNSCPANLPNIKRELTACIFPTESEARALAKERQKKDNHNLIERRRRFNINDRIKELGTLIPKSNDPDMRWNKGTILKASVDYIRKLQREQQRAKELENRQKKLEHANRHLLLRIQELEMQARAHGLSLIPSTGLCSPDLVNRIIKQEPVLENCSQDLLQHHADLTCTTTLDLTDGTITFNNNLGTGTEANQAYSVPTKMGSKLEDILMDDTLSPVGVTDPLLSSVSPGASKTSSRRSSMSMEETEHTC

BJ [11] = experiment: BJ-TERT fibroblast viability loss – cell-based, RAS-independent, luminescence, dose response (AID 1933); type: functional; details: Homo sapiens
INS1 = experiment: INS-1E survival protection against cytokine death – cell-based, luminescence, retest, dose response (AID 449756); type: functional; details: Rattus norvegicus;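 note: cell death triggered by IL-1 beta plus TNF-alpha plus IFN-gamma mixture; protective hits raise ATP signal compared with cytokine alone wells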
[12] = blockers of bursicon-stimulated LGR2 cAMP reporter – cell-based, HEK293, CRE-luciferase reporter, cherry pick, set 2, dose response (AID 743343); type: functional;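 note: transfected cells were stimulated with diluted bursicon conditioned medium after compound addition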
[13] = blockade of melanocortin 4 receptor signaling – cell-based, plate reader, cherry pick, counter-screen for LGR2 antagonist project, dose response (AID 743444); type: functional;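 note: transfected HEK 293 cells stimulated with alpha-MSH peptide; potency of inhibitors of the alpha-MSH evoked signal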
cells = type: functional, cell-based
[14] = biological target: T7, Nuclear receptor subfamily 0 group B member 1 (Homo sapiens, UniProt P51843); type: functional, cell-based;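 note: HEK293T cells transfected with SF-1 and DAX-1 plus StAR promoter luciferase reporter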
T7 sequence (P51843 whole entry): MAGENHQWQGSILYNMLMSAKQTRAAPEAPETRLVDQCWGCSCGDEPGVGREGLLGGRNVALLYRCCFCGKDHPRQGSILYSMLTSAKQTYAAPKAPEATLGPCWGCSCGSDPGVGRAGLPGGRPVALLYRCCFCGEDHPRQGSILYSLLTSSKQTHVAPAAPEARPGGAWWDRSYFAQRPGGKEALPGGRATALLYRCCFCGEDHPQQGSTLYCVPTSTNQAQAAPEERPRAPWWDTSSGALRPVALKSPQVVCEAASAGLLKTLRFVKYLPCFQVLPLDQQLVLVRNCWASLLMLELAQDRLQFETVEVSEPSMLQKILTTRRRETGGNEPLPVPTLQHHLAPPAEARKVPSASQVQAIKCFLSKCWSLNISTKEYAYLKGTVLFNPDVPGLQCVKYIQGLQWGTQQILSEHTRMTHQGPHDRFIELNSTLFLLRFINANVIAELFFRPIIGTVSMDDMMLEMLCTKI

[15] = A549 cell cytotoxicity, dose response, cytotoxicity control, plate reader, cherry-pick, antagonist series (AID 743412); type: functional, cell-based

Chain of Large T antigen (P03070 whole entry): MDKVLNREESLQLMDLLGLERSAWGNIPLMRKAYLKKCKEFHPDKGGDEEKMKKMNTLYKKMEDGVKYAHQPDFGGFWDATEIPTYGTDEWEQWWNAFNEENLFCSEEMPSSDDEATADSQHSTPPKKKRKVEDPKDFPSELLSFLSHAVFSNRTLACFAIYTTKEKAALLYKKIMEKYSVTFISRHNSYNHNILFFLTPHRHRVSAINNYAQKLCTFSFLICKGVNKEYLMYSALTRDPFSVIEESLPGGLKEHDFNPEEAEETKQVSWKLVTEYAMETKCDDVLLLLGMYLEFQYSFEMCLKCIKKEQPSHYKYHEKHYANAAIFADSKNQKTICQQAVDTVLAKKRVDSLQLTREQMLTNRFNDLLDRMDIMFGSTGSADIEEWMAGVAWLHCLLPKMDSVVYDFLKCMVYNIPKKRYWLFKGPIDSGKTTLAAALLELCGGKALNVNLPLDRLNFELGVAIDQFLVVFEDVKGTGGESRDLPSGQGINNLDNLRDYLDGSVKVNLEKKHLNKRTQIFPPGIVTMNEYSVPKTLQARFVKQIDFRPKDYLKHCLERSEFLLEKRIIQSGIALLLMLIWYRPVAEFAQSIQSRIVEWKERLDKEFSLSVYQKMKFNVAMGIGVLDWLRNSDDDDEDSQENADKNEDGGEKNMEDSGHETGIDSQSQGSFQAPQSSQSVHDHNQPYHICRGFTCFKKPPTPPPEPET

- IC50 (Caspase-3): 24.9 µM (active)
- IC50 [2]: 3.15 µM (active)
- IC50 [3]: 3.99 µM (active)
SMILES: CC(=O)Oc1cccc(/C=C2\Sc3ccccc3C2=O)c1
- IC50 [1]: 3.32 µM (active)

SMILES: COc1cc(/C=N/NC(=S)Nc2cccc(C(=O)O)c2)ccc1O
- IC50 [4]: 44.9 µM (active)
- AC50 (HEK293): 1.9 µM (active)
- IC50 (Jurkat): 7.92 µM (active)
- IC50 [5]: > 80 µM (inactive)
- IC50 (Large T antigen): 22.1 µM (active)

- IC50 (Caspase-3): 66.5 µM (active)
- IC50 [2]: 4.7 µM (active)
- IC50 [3]: > 100 µM (inactive)
SMILES: Cc1ccc(CNc2c([N+](=O)[O-])nn(-c3ccc4c(c3)OCCO4)[n+]2[O-])cc1
- IC50 [1]: > 100 µM (inactive)

- IC50 (Caspase-3): 28.3 µM (active)
- IC50 [2]: 7.4 µM (active)
- IC50 [3]: 28.9 µM (active)
SMILES: CC(C)(C)C(=O)OCc1nc(-c2ccc(F)cc2)cs1
- IC50 [1]: 55.3 µM (active)

SMILES: COc1cc(OC)cc(C(=O)N[C@H](C(=O)Nc2nc3ccccc3[nH]2)C(C)C)c1
- EC50 [6]: 1.91 µM (active)
- EC50 (BJ [7]): 0.553 µM (active)
- EC50 (BJ [8]): 2.73 µM (active)
- EC50 (BJ [9]): 1.51 µM (inconclusive)
- AC50 [10]: 2.44 µM (active)
- EC50 (BJ [11]): 1.48 µM (inconclusive)

SMILES: O=S(=O)(c1ccc(NC(=S)NCc2cccnc2)cc1)N1CCCCC1
- EC50 [6]: 20.5 µM (active)
- EC50 (BJ [7]): 0.623 µM (active)
- EC50 (BJ [8]): 0.594 µM (inconclusive)
- EC50 (BJ [9]): 0.767 µM (active)
- AC50 (INS1): 1.11 µM (active)
- EC50 (BJ [11]): > 150 µM (not active)

SMILES: CCOc1ccc(C(=O)Nc2nnc(SCC(=O)NCC3CCCO3)s2)cc1 (stereo not given)
- AC50 [12]: 3.43 µM (active)
- AC50 [13]: 3.95 µM (active)
- AC50 (HEK293): 1.52 µM (active)
- IC50 (cells): > 67.5 µM (inactive)
- IC50 [14]: > 67.5 µM (inactive)
- AC50 [15]: > 52 µM (inactive)
